Source: ChEMBL document CHEMBL1154899, “Synthesis and biological evaluation of caffeic acid 3,4-dihydroxyphenethyl ester” (J Nat Prod, 2010)

Columns and labels:
Assay type in all cases: functional
NCI/ADR-RES = assay: Antiproliferative activity against human NCI/ADR-RES cells assessed as cell growth at 50 uM by SRB assay; details: read-out: Activity
OVCAR-3 [1] = assay: Antiproliferative activity against human OVCAR-3 cells assessed as cell growth at 50 uM by SRB assay; details: read-out: Activity
SK-MEL-28 = assay: Antiproliferative activity against human SK-MEL-28 cells assessed as cell growth at 0.5 uM by SRB assay; details: read-out: Activity
TK-10 [2] = assay: Antiproliferative activity against human TK10 cells assessed as cell growth at 5 uM by SRB assay; details: read-out: Activity
MCF7 [3] = assay: Antiproliferative activity against human MCF7 cells assessed as cell growth at 5 mM by SRB assay; details: read-out: Activity
SK-OV-3 [4] = assay: Antiproliferative activity against human SKOV3 cells assessed as cell growth at 500 uM by SRB assay; details: read-out: Activity
LOX IMVI [5] = assay: Antiproliferative activity against human LOXIMVI cells assessed as cell growth at 0.5 uM by SRB assay; details: read-out: Activity
RXF 393 = assay: Antiproliferative activity against human RXF393 cells assessed as cell growth at 0.5 uM by SRB assay; details: read-out: Activity
OVCAR-5 = assay: Antiproliferative activity against human OVCAR5 cells at 0.5 uM by SRB assay
LOX IMVI [6] = assay: Antiproliferative activity against human LOXIMVI cells assessed as cell growth at 500 uM by SRB assay; details: read-out: Activity
MCF7 [7] = assay: Antiproliferative activity against human MCF7 cells assessed as cell growth at 5 uM by SRB assay; details: read-out: Activity
EKVX = assay: Antiproliferative activity against human EKVX cells assessed as cell growth at 500 uM by SRB assay; details: read-out: Activity
MDA-MB-435 [8] = assay: Antiproliferative activity against human MDA-MB-435 cells assessed as cell growth at 50 uM by SRB assay; details: read-out: Activity
IGROV-1 [9] = assay: Antiproliferative activity against human IGROV1 cells by SRB assay
HT-29 [10] = assay: Antiproliferative activity against human HT-29 cells assessed as cell growth at 5 uM by SRB assay; details: read-out: Activity
OVCAR-8 [11] = assay: Antiproliferative activity against human OVCAR8 cells assessed as cell growth at 500 uM by SRB assay; details: read-out: Activity
IGROV-1 [12] = assay: Antiproliferative activity against human IGROV1 cells assessed as cell growth at 5 uM by SRB assay; details: read-out: Activity
HOP-62 = assay: Antiproliferative activity against human HOP62 cells by SRB assay
SNB-75 = assay: Antiproliferative activity against human SNB75 cells assessed as cell growth at 5 mM by SRB assay; details: read-out: Activity
NCI-H226 = assay: Antiproliferative activity against human NCI-H226 cells assessed as cell growth at 500 uM by SRB assay; details: read-out: Activity
COLO 205 [13] = assay: Antiproliferative activity against human COLO205 cells assessed as cell growth at 500 uM by SRB assay; details: read-out: Activity
ACHN = assay: Antiproliferative activity against human ACHN cells assessed as cell growth at 5 uM by SRB assay; details: read-out: Activity
HCT-116 = assay: Antiproliferative activity against human HCT116 cells assessed as cell growth at 5 uM by SRB assay; details: read-out: Activity
KM12 [14] = assay: Antiproliferative activity against human KM12 cells assessed as cell growth at 500 uM by SRB assay; details: read-out: Activity
UO-31 = assay: Antiproliferative activity against human UO31 cells assessed as cell growth at 5 mM by SRB assay; details: read-out: Activity
MCF7 [15] = assay: Antiproliferative activity against human MCF7 cells assessed as cell growth at 500 uM by SRB assay; details: read-out: Activity
SK-OV-3 [16] = assay: Antiproliferative activity against human SKOV3 cells assessed as cell growth at 50 uM by SRB assay; details: read-out: Activity
TK-10 [17] = assay: Antiproliferative activity against human TK10 cells assessed as cell growth at 0.5 uM by SRB assay; details: read-out: Activity
HCC 2998 = assay: Antiproliferative activity against human HCC2998 cells by SRB assay
NCI-H23 = assay: Antiproliferative activity against human NCI-H23 cells assessed as cell growth at 5 uM by SRB assay; details: read-out: Activity
DU-145 = assay: Antiproliferative activity against human DU145 cells assessed as cell growth at […] by SRB assay; details: read-out: Activity
SR = assay: Antiproliferative activity against human SR cells assessed as cell growth at 500 uM by SRB assay; details: read-out: Activity
NCI-H322M = assay: Antiproliferative activity against human NCI-H322M cells assessed as cell growth at 50 uM by SRB assay; details: read-out: Activity
OVCAR-8 [18] = assay: Antiproliferative activity against human OVCAR8 cells assessed as cell growth at 5 uM by SRB assay; details: read-out: Activity
LOX IMVI [19] = assay: Antiproliferative activity against human LOXIMVI cells assessed as cell growth at 5 uM by SRB assay; details: read-out: Activity
HOP-92 = assay: Antiproliferative activity against human HOP92 cells assessed as cell growth at 0.5 uM by SRB assay; details: read-out: Activity
SNB-19 = assay: Antiproliferative activity against human SNB19 cells assessed as cell growth at 500 uM by SRB assay; details: read-out: Activity
OVCAR-3 [20] = assay: Antiproliferative activity against human OVCAR-3 cells assessed as cell growth at 500 uM by SRB assay; details: read-out: Activity
U-251 = assay: Antiproliferative activity against human U251 cells assessed as cell growth at 5 uM by SRB assay; details: read-out: Activity
OVCAR-4 = assay: Antiproliferative activity against human OVCAR4 cells assessed as cell growth at 500 uM by SRB assay; details: read-out: Activity
MDA-MB-435 [21] = assay: Antiproliferative activity against human MDA-MB-435 cells assessed as cell growth at 5 uM by SRB assay; details: read-out: Activity
HT-29 [22] = assay: Antiproliferative activity against human HT-29 cells assessed as cell growth at 50 uM by SRB assay; details: read-out: Activity
A498 = assay: Antiproliferative activity against human A498 cells assessed as cell growth at 5 uM by SRB assay; details: read-out: Activity
HT-29 [23] = assay: Antiproliferative activity against human HT-29 cells assessed as cell growth at 500 uM by SRB assay; details: read-out: Activity
KM12 [24] = assay: Antiproliferative activity against human KM12 cells assessed as cell growth at 50 uM by SRB assay; details: read-out: Activity
MOLT-4 = assay: Antiproliferative activity against human MOLT4 cells assessed as cell growth at 5 mM by SRB assay; details: read-out: Activity
COLO 205 [25] = assay: Antiproliferative activity against human COLO205 cells assessed as cell growth at 0.5 uM by SRB assay; details: read-out: Activity
[26] = read-out: LC50 (the source's name)
[27] = read-out: pLC50 (the source's name) (converted)

`O=C(/C=C/c1ccc(O)c(O)c1)OCCc1ccc(O)c(O)c1` showed a growth at 50 µM (NCI/ADR-RES) of 99%, a growth at 50 µM (OVCAR-3 [1]) of 90% and a growth at 0.5 µM (SK-MEL-28) of 97%. For the same compound, the growth at 5 µM (TK-10 [2]) was 95%, the growth at 5000 µM (MCF7 [3]) was 5% and the growth at 500 µM (SK-OV-3 [4]) was 79%. For the same compound, the growth at 0.5 µM (LOX IMVI [5]) was 92%, the growth at 0.5 µM (RXF 393) was 88% and the Activity (OVCAR-5) was 94%. It also gave a growth at 500 µM (LOX IMVI [6]) of 57%, a growth at 5 µM (MCF7 [7]) of 108% and a growth at 500 µM (EKVX) of 78%. It also gave a growth at 50 µM (MDA-MB-435 [8]) of 89%, a GI50 (IGROV-1 [9]; read-out: GI50) of 2.86 µM and a CC50 (IGROV-1 [9]; [26]) of over 50 µM. For the same compound, the TGI (IGROV-1 [9]; read-out: TGI) was 24.4 µM, the GI50 (IGROV-1 [9]; read-out: pGI50 (converted)) was 2.88 µM and the CC50 (IGROV-1 [9]; [27]) was over 50.1 µM. It also gave a TGI (IGROV-1 [9]; read-out: pTGI (converted)) of 15.5 µM, a growth at 5 µM (HT-29 [10]) of 103% and a growth at 500 µM (OVCAR-8 [11]) of 64%. The growth at 5 µM (IGROV-1 [12]) was 102%, the GI50 (HOP-62; read-out: GI50) was 29.1 µM and the CC50 (HOP-62; [26]) was over 50 µM. The TGI (HOP-62; read-out: TGI) was over 50 µM, the GI50 (HOP-62; read-out: pGI50 (converted)) was 28.8 µM and the CC50 (HOP-62; [27]) was over 50.1 µM. It also gave a TGI (HOP-62; read-out: pTGI) of over 50.1 µM, a growth at 5000 µM (SNB-75) of 30% and a growth at 500 µM (NCI-H226) of 79%. The growth at 500 µM (COLO 205 [13]) was 84%, the growth at 5 µM (ACHN) was 95% and the growth at 5 µM (HCT-116) was 97%. The growth at 500 µM (KM12 [14]) was 59%, the growth at 5000 µM (UO-31) was -14% and the growth at 500 µM (MCF7 [15]) was 45%. The growth at 50 µM (SK-OV-3 [16]) was 88%, the growth at 0.5 µM (TK-10 [17]) was 92% and the GI50 (HCC 2998; read-out: GI50) was 14.6 µM. For the same compound, the CC50 (HCC 2998; [26]) was over 50 µM, the TGI (HCC 2998; read-out: TGI) was over 50 µM and the GI50 (HCC 2998; read-out: pGI50 (converted)) was 14.5 µM. For the same compound, the CC50 (HCC 2998; [27]) was over 50.1 µM, the TGI (HCC 2998; read-out: pTGI) was over 50.1 µM and the growth at 5 µM (NCI-H23) was 95%. For the same compound, the growth (DU-145) was -22%, the growth at 500 µM (SR) was 20% and the growth at 50 µM (NCI-H322M) was 97%. It also gave a growth at 5 µM (OVCAR-8 [18]) of 79%, a growth at 5 µM (LOX IMVI [19]) of 101% and a growth at 0.5 µM (HOP-92) of 70%. The growth at 500 µM (SNB-19) was 79%, the growth at 500 µM (OVCAR-3 [20]) was 50% and the growth at 5 µM (U-251) was 97%. For the same compound, the growth at 500 µM (OVCAR-4) was 58%, the growth at 5 µM (MDA-MB-435 [21]) was 92% and the growth at 50 µM (HT-29 [22]) was 98%. It also gave a growth at 5 µM (A498) of 81%, a growth at 500 µM (HT-29 [23]) of 99% and a growth at 50 µM (KM12 [24]) of 81%. For the same compound, the growth at 5000 µM (MOLT-4) was 4% and the growth at 0.5 µM (COLO 205 [25]) was 99%.
